Read-outs that look alike come from different tables or passages of the source.
Assays:
[1] = system: P. falciparum oocyst formation in Anopheles stephensi mosquitoes; test: P. falciparum oocyst inhibition assay (SMFA); format: in vivo, Plasmodium falciparum; settings: for Median (oocysts) / Median I % / Prevalence % / Prevalence I %: pooled from two representative experiments
Protocol: As previously described, P. falciparum infections were performed using SMFA with NF54 gametocyte cultures diluted to 0.3% stage V gametocytemia ([62]). Infected blood (O+ human 45% hematocrit in serum) was offered to mosquitoes for 30 minutes, and engorged mosquitoes were maintained on a 10% corn syrup solution supplemented by four concentrations of CB compounds (1, 2.5, 5, and 10 µM) at […] ([63]), with DMSO serving as a control. Eight days post-infection, mosquito midguts were dissected and stained with 0.2% mercurochrome for 30 minutes, and oocysts were quantified under a light microscope ([63]).

[2] = system: P. berghei blood-stage parasites; test: P. berghei blood-stage isobolograms; format: cell-based, Plasmodium berghei
Protocol: Antimalarial activity and IC50 values of CB-61 and five antimalarial drugs were assessed using the previously described in vitro drug luminescence assay ([14], [68]). Blood-stage isobolograms were performed to confirm synergistic combinations between CB-61 and the five drugs, following established protocols ([69]). Thirty-two-fold IC50 concentrations were used to obtain six concentration ranges for each drug combination, and then they were serially diluted five times ([67]). IC50 scores for each drug alone were determined, and FIC50 values (FIC50 = […]) were calculated and plotted ([70], [71]). The Promega Luciferase Assay System Kit was used to measure mature schizonts’ RLUs, and Giemsa blood smears confirmed the presence of schizonts ([14]).

P. falciparum TM91c235 = test: Malaria SYBR Green I-Based Fluorescence (MSF) assay, blood stages; format: cell-based; settings: Plasmodium falciparum, 72 h, read-out: IC50 (µM) (±SD) for strain: TM91c235
Summary of the method: (§1)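 Late-ring/early-trophozoite cultures (0.3% parasitemia, 2% hematocrit) exposed to 12-point dilutions of compound (0.0098–20 µM) for 72 h at 37°C under 5% CO2/5% O2/90% N2. Parasite growth read as SYBR Green I fluorescence after 24 h lysis in the dark at 25°C.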

P. falciparum W2 = test: as above; format: cell-based; settings: Plasmodium falciparum, W2, 72 h, read-out: IC50 (µM) (±SD) for strain: W2
Summary of the method: as §1

P. falciparum C2B = test: as above; format: cell-based; settings: Plasmodium falciparum, 72 h, read-out: IC50 (µM) (±SD) for strain: C2B
Summary of the method: as §1

P. falciparum D6 = test: as above; format: cell-based; settings: Plasmodium falciparum, D6, 72 h, read-out: IC50 (µM) (±SD) for strain: D6
Summary of the method: as §1

Question: `O=C(N/N=C/c1c(O)ccc2ccccc12)c1cc([N+](=O)[O-])cc([N+](=O)[O-])c1` [CB-61] was tested. Which “Median oocyst #” value ([1]; 1 μM compound) did it give?
Answer: 1

Question: And the “Mean oocyst # excluding zeros (Range)” value ([1]; 1 μM compound, P. falciparum midgut infection in An. stephensi mosquitoes)?
Answer: 30 (0-109)

Question: And the Prevalence ([1]; 1 μM compound, infection prevalence in mosquitoes)?
Answer: 60

Question: And the “Median (oocysts)” value ([1]; 1 µM)?
Answer: 1

Question: And the “Median I %” value ([1]; 1 µM)?
Answer: 83%

Question: What about the Prevalence % ([1]; 1 µM) of the same compound?
Answer: 59%

Question: What about the “Prevalence I %” value ([1]; 1 µM) of the same compound?
Answer: 31%

Question: And the “Median oocyst #” value ([1]; 2.5 μM compound)?
Answer: 1

Question: What about the “Mean oocyst # excluding zeros (Range)” value ([1]; 2.5 μM compound, P. falciparum midgut infection in An. stephensi mosquitoes) of the same compound?
Answer: 20 (0-65)

Question: And the Prevalence ([1]; 2.5 μM compound, infection prevalence in mosquitoes)?
Answer: 55

Question: What about the “Median (oocysts)” value ([1]; 2.5 µM) of the same compound?
Answer: 1

Question: And the “Median I %” value ([1]; 2.5 µM)?
Answer: 83%

Question: And the Prevalence % ([1]; 2.5 µM)?
Answer: 55%

Question: And the “Prevalence I %” value ([1]; 2.5 µM)?
Answer: 36%

Question: What about the “% inhibition (median)” value ([1]; 2.5 μM, single experiments) of the same compound?
Answer: 62%

Question: What about the “Median oocyst #” value ([1]; 5 μM compound) of the same compound?
Answer: 1

Question: What about the “Mean oocyst # excluding zeros (Range)” value ([1]; 5 μM compound, P. falciparum midgut infection in An. stephensi mosquitoes) of the same compound?
Answer: 20 (0-68)

Question: And the Prevalence ([1]; 5 μM compound, infection prevalence in mosquitoes)?
Answer: 55

Question: What about the “Median (oocysts)” value ([1]; 5 µM) of the same compound?
Answer: 1

Question: And the “Median I %” value ([1]; 5 µM)?
Answer: 83%

Question: And the Prevalence % ([1]; 5 µM)?
Answer: 55%

Question: What about the “Prevalence I %” value ([1]; 5 µM) of the same compound?
Answer: 36%

Question: What about the “% inhibition (median)” value ([1]; 5 μM, single experiments) of the same compound?
Answer: 58%

Question: What about the “Mean oocyst # excluding zeros (Range)” value ([1]; 7.5 μM, single experiments) of the same compound?
Answer: 15 (0-53)

Question: What about the “Median oocyst #” value ([1]; 7.5 μM, single experiments) of the same compound?
Answer: 2.5

Question: And the Prevalence ([1]; 7.5 μM, single experiments)?
Answer: 75

Question: What about the “Median oocyst #” value ([1]; 10 μM compound) of the same compound?
Answer: 0

Question: What about the “Mean oocyst # excluding zeros (Range)” value ([1]; 10 μM compound, P. falciparum midgut infection in An. stephensi mosquitoes) of the same compound?
Answer: 7 (0-30)

Question: And the Prevalence ([1]; 10 μM compound, infection prevalence in mosquitoes)?
Answer: 46

Question: What about the “Median (oocysts)” value ([1]; 10 µM) of the same compound?
Answer: 0

Question: What about the “Median I %” value ([1]; 10 µM) of the same compound?
Answer: 100%

Question: And the Prevalence % ([1]; 10 µM)?
Answer: 46%

Question: What about the “Prevalence I %” value ([1]; 10 µM) of the same compound?
Answer: 47%

Question: And the “Mean oocyst # excluding zeros (Range)” value ([1]; 25 μM, single experiments)?
Answer: 1 (0-2)

Question: What about the “Median oocyst #” value ([1]; 25 μM, single experiments) of the same compound?
Answer: 0

Question: And the Prevalence ([1]; 25 μM, single experiments)?
Answer: 18

Question: And the “Mean oocyst # excluding zeros (Range)” value ([1]; 50 μM, single experiments)?
Answer: 1 (0-2)

Question: What about the “Median oocyst #” value ([1]; 50 μM, single experiments) of the same compound?
Answer: 0

Question: What about the Prevalence ([1]; 50 μM, single experiments) of the same compound?
Answer: 15

Question: What about the oocyst formation inhibition ([1]; 1 to 10 µM, midguts dissected 8 days after feeding) of the same compound?
Answer: inhibited midgut oocyst formation in a dose-dependent manner

Question: What about the inhibition at 2.5 µM ([1]; read-out: % inhibition (mean), 2.5 μM compound, oocyst number vs DMSO control) of the same compound?
Answer: 23%

Question: And the inhibition at 5 µM ([1]; read-out: % inhibition (mean), 5 μM compound, oocyst number vs DMSO control)?
Answer: 23%

Question: What about the inhibition at 7.5 µM ([1]; read-out: % inhibition (mean), 7.5 μM, single experiments) of the same compound?
Answer: 29%

Question: And the inhibition at 10 µM ([1]; read-out: % inhibition (mean), 10 μM compound, oocyst number vs DMSO control)?
Answer: 72%

Question: And the inhibition at 25 µM ([1]; read-out: % inhibition (mean), 25 μM, single experiments)?
Answer: 48%

Question: And the inhibition at 50 µM ([1]; read-out: % inhibition (mean), 50 μM, single experiments)?
Answer: 49%

Question: And the inhibition at 1 µM ([1]; read-out: % inhibition (median), 1 μM compound, oocyst number vs DMSO control)?
Answer: 83%

Question: What about the inhibition at 2.5 µM ([1]; read-out: % inhibition (median), 2.5 μM compound, oocyst number vs DMSO control) of the same compound?
Answer: 83%

Question: And the inhibition at 5 µM ([1]; read-out: % inhibition (median), 5 μM compound, oocyst number vs DMSO control)?
Answer: 83%

Question: And the inhibition at 7.5 µM ([1]; read-out: % inhibition (median), 7.5 μM, single experiments)?
Answer: 79%

Question: And the inhibition at 10 µM ([1]; read-out: % inhibition (median), 10 μM compound, oocyst number vs DMSO control)?
Answer: 100%

Question: And the inhibition at 25 µM ([1]; read-out: % inhibition (median), 25 μM, single experiments)?
Answer: 100%

Question: And the inhibition at 50 µM ([1]; read-out: % inhibition (median), 50 μM, single experiments)?
Answer: 100%

Question: And the inhibition at 1 µM ([1]; read-out: % inhibition (prevalence), 1 μM compound, vs DMSO control)?
Answer: 31%

Question: What about the inhibition at 2.5 µM ([1]; read-out: % inhibition (prevalence), 2.5 μM compound, vs DMSO control) of the same compound?
Answer: 36%

Question: What about the inhibition at 5 µM ([1]; read-out: % inhibition (prevalence), 5 μM compound, vs DMSO control) of the same compound?
Answer: 36%

Question: What about the inhibition at 7.5 µM ([1]; read-out: % inhibition (prevalence), 7.5 μM, single experiments) of the same compound?
Answer: 21%

Question: And the inhibition at 10 µM ([1]; read-out: % inhibition (prevalence), 10 μM compound, vs DMSO control)?
Answer: 47%

Question: And the inhibition at 25 µM ([1]; read-out: % inhibition (prevalence), 25 μM, single experiments)?
Answer: 74%

Question: What about the inhibition at 50 µM ([1]; read-out: % inhibition (prevalence), 50 μM, single experiments) of the same compound?
Answer: 78%

Question: What about the “Mean ΣFIC50” value ([2]; combination with ATQ) of the same compound?
Answer: 1.13

Question: And the “Mean ΣFIC50” value ([2]; combination with CLIND)?
Answer: 0.82

Question: What about the “Mean ΣFIC50” value ([2]; combination with CQ (negative control)) of the same compound?
Answer: 1.15

Question: And the “Mean ΣFIC50” value ([2]; combination with DHA)?
Answer: 1.44

Question: What about the “Mean ΣFIC50” value ([2]; combination with HALO) of the same compound?
Answer: 0.78

Question: And the “Mean ΣFIC50” value ([2]; combination with LUM)?
Answer: 1.20

Question: What about the IC50 (P. falciparum TM91c235) of the same compound?
Answer: 0.26 µM

Question: What about the IC50 (P. falciparum W2) of the same compound?
Answer: 0.22 µM

Question: And the IC50 (P. falciparum C2B)?
Answer: 0.3 µM

Question: And the IC50 (P. falciparum D6)?
Answer: 0.2 µM
